Data as given in PubChem BioAssay (NCI).
Several values for one entry are separate records, joined by “and”; a condition that tells them apart may be missing. Identical values can stand only once.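 Following 48 hours of exposure in 96-well plates, responses at five concentrations were used to interpolate endpoints linearly. The concentration for 50% growth inhibition is given as GI50. The concentration for full growth arrest is given as TGI.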

Columns and labels:
Experiment in all cases: NCI-60 cell line screen, 48 h
HT29 colon = system: HT29 colon
NCI/ADR-RES ovarian = system: NCI/ADR-RES ovarian
SF-295 CNS = system: SF-295 CNS
NCI-H23 lung = system: NCI-H23 lung
SN12C renal = system: SN12C renal
COLO 205 colon = system: COLO 205 colon
OVCAR-8 ovarian = system: OVCAR-8 ovarian
OVCAR-3 ovarian = system: OVCAR-3 ovarian
LOX IMVI melanoma = system: LOX IMVI melanoma
NCI-H522 lung = system: NCI-H522 lung

| SMILES | TGI (HT29 colon) [µM] | TGI (NCI/ADR-RES ovarian) [µM] | TGI (SF-295 CNS) [µM] | TGI (NCI-H23 lung) [µM] | TGI (SN12C renal) [µM] | TGI (COLO 205 colon) [µM] | TGI (OVCAR-8 ovarian) [µM] | TGI (OVCAR-3 ovarian) [µM] | TGI (LOX IMVI melanoma) [µM] | TGI (NCI-H522 lung) [µM] | GI50 (HT29 colon) [µM] | GI50 (NCI/ADR-RES ovarian) [µM] | GI50 (SF-295 CNS) [µM] | GI50 (NCI-H23 lung) [µM] | GI50 (SN12C renal) [µM] | GI50 (COLO 205 colon) [µM] | GI50 (OVCAR-8 ovarian) [µM] | GI50 (OVCAR-3 ovarian) | GI50 (LOX IMVI melanoma) [µM] | GI50 (NCI-H522 lung) [µM] |
| --- | --- | --- | --- | --- | --- | --- | --- | --- | --- | --- | --- | --- | --- | --- | --- | --- | --- | --- | --- | --- |
| O=C1CCC(Cc2ccc(Cl)cc2Cl)C(=O)N1 (centres undefined) | > 100 | > 100 | > 100 | > 100 | > 100 | > 100 | > 100 | > 100 | > 100 | > 100 | – | – | – | – | – | – | – | – | – | – |
| N[C@@H](Cc1c[nH]c2ccccc12)C(=O)NC1CCN(C(=O)c2c[nH]c3ccccc23)CC1 | > 100 | > 100 | > 100 | > 100 | > 100 | > 100 | > 100 | > 100 | > 100 | > 100 | > 100 | > 100 | > 100 | > 100 | > 100 | 47.9 | > 100 | > 100 µM | 96.1 | > 100 |
| O=C(/C=C/c1cccnc1)NCCCCC1CCN(C(=O)c2ccccc2)CC1 | > 100 | > 100 | > 100 | > 100 | > 100 | > 100 | > 100 | > 100 | > 100 | > 100 | < 0.01 | < 0.0135 | < 0.0256 | > 100 | < 0.01 | 25.4 | < 0.01 | 48.5 µM and 6.22 µM | > 100 | < 0.01 |
| CC1=C([Se]CC(OC(=O)CC[Se]c2ccccc2)C(=O)NCCCCCC(=O)OCc2ccccc2)C(=O)c2ccccc2C1=O (centres undefined) | 12.1 | 6.5 | 8.46 | 5.53 | 14.3 | 3.93 | 7.16 | 4.71 | 4.28 | 6.16 | 3.65 | 2.36 | 1.97 | 2 | 3.25 | 2.15 | 2.44 | 1.83 µM | 1.81 | 2.28 |
| O=c1c2ccccc2c2ccccc2c(=O)n1-c1cc2c3ccccc3ccc2c2ccccc12 | > 100 | > 100 | > 100 | > 100 | > 100 | > 100 | > 100 | > 100 | > 100 | > 100 | – | – | – | – | – | – | – | – | – | – |
| COc1ccc(/C=C/C(=O)c2cc3c(N)c(C(=O)Nc4ccccc4Cl)sc3nc2C)cc1 | > 50 | 16 | > 50 | > 50 | > 50 | > 50 | 11 | 16.3 | > 50 | > 50 | 1.98 | 1.62 | 3 | 4.58 | 3.78 | 17.2 | 2.04 | 2.11 µM | 8.11 | 0.365 |
| O=C(O)C(=Cc1ccnc2ccccc12)C(=O)O | > 100 | > 100 | > 100 | > 100 | > 100 | > 100 | > 100 | > 100 | > 100 | > 100 | – | – | – | – | – | – | – | – | – | – |
| Cc1c(C#N)cccc1-c1cc(-c2cn(Cc3cccc(C(C)(C)O)n3)nn2)nc(N)n1 | > 100 | > 100 | > 100 | > 100 | > 100 | > 100 | > 100 | > 100 | > 100 | > 100 | 28.2 | 24.1 | 25.2 | 26 | 17.2 | 25.9 | 24.2 | 17.6 µM | 28.2 | 12.4 |
| C=C1C(=O)O[C@H]2[C@H]1CC/C(COC(=O)NCc1cc3ccccc3[nH]1)=C\CC[C@@]1(C)O[C@@H]21 | 4.7 | 8.06 | 20.9 | 5.18 | 3.17 | 3.59 | 5.41 | 3.52 | 2.61 | 3.29 | 2.21 | 2.52 | 8.23 | 2.16 | 1.45 | 1.8 | 2.02 | 1.69 µM | 1.26 | 1.5 |
| CCN(CC)c1ccc(/C=C\c2cc(C)c3cc(C)ccc3n2)cc1 | 11.4 | > 100 | > 100 | > 100 | > 100 | 18.5 | > 100 | 12.4 | > 100 | 5.19 | 2.65 | 3.1 | 4.19 | 5.37 | 11.7 | 3.67 | 4.79 | 3.24 µM | 4.29 | 1.49 |
| Oc1ccc(Cc2ccc(O)c3ncccc23)c2cccnc12 | > 100 | > 100 | 0.948 | > 100 | > 100 | > 100 | > 100 | > 100 | > 100 | 0.531 | > 100 | 0.212 | 0.294 | 0.0448 | 0.0361 | > 100 | 0.0477 | 0.138 µM | 0.0402 | 0.0439 |
| C(=N\Nc1ccccn1)/c1ccccn1 | > 100 | > 39.7 | > 41.3 | > 100 | > 100 | > 100 | > 100 | – | > 100 | > 100 | 0.563 | 0.359 | 0.359 | 0.503 | 0.443 | 0.356 | 0.411 | 0.286 µM | 0.319 | 0.71 |
| C/C(=N/S(=O)(=O)c1ccc(Cl)c(Cl)c1)OCC(C)(C)C | > 100 | > 100 | > 100 | > 100 | > 100 | > 100 | > 100 | > 100 | > 100 | > 100 | – | – | – | – | – | – | – | – | – | – |
| CC(=O)Nc1ccc(/C=C/[N+](=O)[O-])cc1 | 3.93 | 31.3 | 14 | 10.9 | 9.8 | 7.28 | 15.4 | 10.7 | 3.91 | 0.815 | – | – | – | – | – | – | – | – | – | – |
